From US9914955B2, “Genetically encoded FRET-based MMP-9 activity biosensor and use thereof” (Instytut Biologii Doświadczalnej im. Marcelego Nenckiego …, priority 2013, dated 2018)

How the values were obtained:
[1] = tested on: human auto-activating MMP-9; test: In vitro cleavage of the biosensor in HEK293 lysate by auto-activating MMP-9, western blot; assay type: biochemical; conditions: inhibitor 25 μM final concentration
HEK293 cell lysate = test: Baseline cleavage of the biosensor in untreated HEK293 lysate, western blot; assay type: biochemical
Experimental: Two days post-transfection HEK293 cells were washed one with PBS, scraped from the plate and lysed for 1 h at 4° C. with the following buffer: 50 mM Tris-Cl pH 7.5, 1% Triton X-100, 10 mM CaCl2, 0.02% NaN3, 1 μM ZnCl2. The lysis was performed without protease inhibitors since it was feared that they might block the activity of our auto-activating MMP-9. The lysate was then centrifuged at 13400 rpm for 15′ at 4° C. to remove cell debris. Equal amount of the cleared lysate were used in the subsequent reactions. […] GM6001 inhibitor was used in 25 μM final concentration. Reactions were stopped at either 30′, 1 h, 4 h or after overnight incubation at 37° C. with the addition of SDS-PAGE Sample Buffer and heating to 100° C. for 10 minutes. Sensor was detected on Western Blot with the anti-GFP antibody.

CNC(=O)[C@H](Cc1c[nH]c2ccccc12)NC(=O)[C@@H](CC(=O)NO)CC(C)C [GM6001]
effect of inhibitor on biosensor cleavage by auto-activating MMP-9 [1]: blocked | effect of inhibitor on baseline cleavage of the biosensor (HEK293 cell lysate): at least partially, blocked
